Results: US10632125B2, “MTH1 inhibitors for treatment of inflammatory and autoimmune conditions” (THOMAS HELLEDAYS STIFTELSE FÖR MEDICINSK FORSKNING, priority 2014, dated 2020)

Columns and labels:
[1] = target: MTH1 (Homo sapiens, UniProt P36639); experiment: MTH1 enzymatic assay (malachite green, coupled to pyrophosphatase); type: biochemical; settings: dGTP 100 μM, MTH1 6 nM; 96- or 384-well format; read-out: IC50
[2] = test system: activated T-lymphocytes; experiment: Cellular assay, primary T-lymphocytes activated with CD3/CD28 Dynabeads; type: cell-based, human
Experimental: (§1) Cellular Assay and IC50 Value Determination
(§2) Primary T-lymphocytes are isolated from donated human blood and thereafter activated with CD3/CD28 Dynabeads. The T-lymphocytes are treated with an MTH1 inhibitor, positive control or vehicle for 24-96 hrs. Cell viability can be measured by using standard assays, such as for instance a resazurin assay. In some experiments, the cells are stained with Cell Trace Violet at the start of the culture. The dye is diluted as the cells divide and gives a measurement of cell proliferation (see FIG. 1 for an example).

[3] = test system: unactivated T-lymphocytes; experiment: Cellular assay, unactivated primary T-lymphocytes; type: cell-based, human
Experimental: as §1
as §2, with “The” for “Primary T-lymphocytes are isolated from donated human blood and thereafter activated with CD3/CD28 Dynabeads. The”

| SMILES | IC50 [1] [nM] | effect on activated T-lymphocytes (FIG. 1) [2] | effect on unactivated T-lymphocytes (FIG. 1) [3] |
| --- | --- | --- | --- |
| Cc1c(Cl)cccc1-c1cc(NCCc2ccc(S(N)(=O)=O)cc2)nc(N)n1 [Example 297, 4-(2-{[2-amino-6-(3-chloro-2-methylphenyl)pyrimidin-4-yl]amino}ethyl)benzene-1-sulfonamide] | < 200 | selectively kills | unaffected |
| Cc1c(Cl)cccc1-c1cc(NCC[S+]([O-])CCc2ccccc2)nc(N)n1 (stereo not drawn) [Example 692, 6-(3-chloro-2-methyl-phenyl)-N4-[2-(2-phenylethylsulfinyl)ethyl]pyrimidine-2,4-diamine] | 2000 to 10000 |  |  |
| Cc1cc(CSCCNc2cc(-c3cccc(Cl)c3C)nc(N)n2)no1 [Example 700, 6-(3-chloro-2-methyl-phenyl)-N4-[2-[(5-methylisoxazol-3-yl)methylsulfanyl]ethyl]pyrimidine-2,4-diamine] | < 200 |  |  |
| Cc1noc(C)c1CCNc1cc(-c2cccc(Cl)c2C)nc(N)n1 [Example 701, 6-(3-chloro-2-methyl-phenyl)-N4-[2-(3,5-dimethylisoxazol-4-yl)ethyl]pyrimidine-2,4-diamine] | < 200 |  |  |
| CCCNc1cc(-c2cccc(Cl)c2C)nc(N)n1 [Example 702, 6-(3-chloro-2-methyl-phenyl)-N4-propyl-pyrimidine-2,4-diamine] | < 200 |  |  |
| CCCCNc1cc(-c2cccc(Cl)c2C)nc(N)n1 [Example 703, N4-butyl-6-(3-chloro-2-methyl-phenyl)pyrimidine-2,4-diamine] | < 200 |  |  |
| COCCNc1cc(-c2cccc(Cl)c2C)nc(N)n1 [Example 704, 6-(3-chloro-2-methyl-phenyl)-N4-(2-methoxyethyl)pyrimidine-2,4-diamine] | < 200 |  |  |
| CCOCCCNc1cc(-c2cccc(Cl)c2C)nc(N)n1 [Example 705, 6-(3-chloro-2-methyl-phenyl)-N4-(3-ethoxypropyl)pyrimidine-2,4-diamine] | < 200 |  |  |
| Cc1c(Cl)cccc1-c1cc(NCC2CCOCC2)nc(N)n1 [Example 706, 6-(3-chloro-2-methyl-phenyl)-N4-(tetrahydropyran-4-ylmethyl)pyrimidine-2,4-diamine] | < 200 |  |  |
| Cc1c(Cl)cccc1-c1cc(NCC2CCCO2)nc(N)n1 (stereo not drawn) [Example 707, 6-(3-chloro-2-methyl-phenyl)-N4-(tetrahydrofuran-2-ylmethyl)pyrimidine-2,4-diamine] | < 200 |  |  |
| CC(C)=CCC/C(C)=C/CNc1cc(-c2cccc(Cl)c2C)nc(N)n1 [Example 708, 6-(3-chloro-2-methyl-phenyl)-N4-[(2E)-3,7-dimethylocta-2,6-dienyl]pyrimidine-2,4-diamine] | < 200 |  |  |
| Cc1c(Cl)cccc1-c1cc(NCC(C)C)nc(N)n1 [Example 709, 6-(3-chloro-2-methyl-phenyl)-N4-isobutyl-pyrimidine-2,4-diamine] | < 200 |  |  |
| Cc1c(Cl)cccc1-c1cc(NCCc2ccccc2)nc(N)n1 [Example 713, 6-(3-chloro-2-methyl-phenyl)-N4-(2-phenylethyl)pyrimidine-2,4-diamine] | < 200 |  |  |
| Cc1c(Cl)cccc1-c1cc(NCCc2ccncc2)nc(N)n1 [Example 714, 6-(3-chloro-2-methyl-phenyl)-N4-[2-(4-pyridyl)ethyl]pyrimidine-2,4-diamine] | < 200 |  |  |
| Cc1c(Cl)cccc1-c1cc(NCCc2ccccn2)nc(N)n1 [Example 715, 6-(3-chloro-2-methyl-phenyl)-N4-[2-(2-pyridyl)ethyl]pyrimidine-2,4-diamine] | < 200 |  |  |
| Cc1c(Cl)cccc1-c1cc(NC/C(=C\F)CCc2ccc(F)cc2)nc(N)n1 [Example 721, 6-(3-chloro-2-methyl-phenyl)-N4-[(2Z)-2-(fluoromethylene)-4-(4-fluorophenyl)butyl]pyrimidine-2,4-diamine] | < 200 |  |  |
| Cc1cc(C[S+]([O-])CCNc2cc(-c3cccc(Cl)c3C)nc(N)n2)no1 (stereo not drawn) [Example 725, 6-(3-chloro-2-methyl-phenyl)-N4-[2-[(5-methylisoxazol-3-yl)methylsulfinyl]ethyl]pyrimidine-2,4-diamine] | 2000 to 10000 |  |  |
| Cc1c(Cl)cccc1-c1cc(NCCc2ccc(O)c(O)c2)nc(N)n1 [Example 727, 4-[2-[[2-amino-6-(3-chloro-2-methyl-phenyl)pyrimidin-4-yl]amino]ethyl]benzene-1,2-diol] | < 200 |  |  |
| Cc1c(Cl)cccc1-c1cc(NCCc2cc(O)c(O)c(O)c2)nc(N)n1 [Example 728, 5-[2-[[2-amino-6-(3-chloro-2-methyl-phenyl)pyrimidin-4-yl]amino]ethyl]benzene-1,2,3-triol] | < 200 |  |  |
| C=C(C)CNc1cc(-c2cccc(Cl)c2C)nc(N)n1 [Example 729, 6-(3-chloro-2-methyl-phenyl)-N4-(2-methylallyl)pyrimidine-2,4-diamine] | < 200 |  |  |
| COC(=O)C1CCC(CNc2cc(-c3cccc(Cl)c3C)nc(N)n2)CC1 (stereo not drawn) [Example 731, methyl 4-[[[2-amino-6-(3-chloro-2-methyl-phenyl)pyrimidin-4-yl]amino]methyl]cyclohexanecarboxylate] | < 200 |  |  |
| Cc1c(Cl)cccc1-c1cc(NCCc2cccnc2)nc(N)n1 [Example 733, 6-(3-chloro-2-methyl-phenyl)-N4-[2-(3-pyridyl)ethyl]pyrimidine-2,4-diamine] | < 200 |  |  |
| Cc1c(Cl)cccc1-c1cc(NCCc2cnccn2)nc(N)n1 [Example 735, 6-(3-chloro-2-methyl-phenyl)-N4-(2-pyrazin-2-ylethyl)pyrimidine-2,4-diamine] | < 200 |  |  |
| Cc1c(Cl)cccc1-c1cc(NCCc2ccc(Br)cc2)nc(N)n1 [Example 736, N4-[2-(4-bromophenyl)ethyl]-6-(3-chloro-2-methylphenyl)pyrimidine-2,4-diamine] | < 200 |  |  |
| Cc1c(Cl)cccc1-c1nc(N)nc2c1CCN2 [Example 742, 4-(3-chloro-2-methylphenyl)-5H,6H,7H-pyrrolo[2,3-d]pyrimidin-2-amine] | < 200 |  |  |
| Cc1c(Cl)cccc1-c1nc(N)nc2c1C[C@@H](C)N2 [Example 743, (6R)-4-(3-Chloro-2-methylphenyl)-6-methyl-5H,6H,7H-pyrrolo[2,3-d]pyrimidin-2-amine] | < 200 |  |  |
| Cc1c(Cl)cccc1-c1cc(NCCOc2ccc(Cl)cn2)nc(N)n1 [Example 746, 6-(3-chloro-2-methylphenyl)-N4-{2-[(5-chloropyridin-2-yl)oxy]ethyl}pyrimidine-2,4-diamine] | < 200 |  |  |
| Cc1c(Cl)cccc1-c1cc(NCCOc2ccc(C#N)cc2)nc(N)n1 [Example 747, 4-(2-{[2-amino-6-(3-chloro-2-methylphenyl)pyrimidin-4-yl]amino}ethoxy)benzonitrile] | < 200 |  |  |
